# Experimental data from US7166593B2, “Glucocorticoid receptor modulators” (Pfizer, Inc., priority 2000, dated 2007).
# How the values were obtained:
# [1] = test system: IL-1 (Interleukin-1) induced IL-8 (Interleukin-8) production in SW1353 human chondrosarcoma cells; assay: glucocorticoid inhibition of IL-1 induced IL-8 production in human chondrosarcoma cells; assay type: cell-based; settings: 20 ng/ml IL-1 beta, 24 hours after addition of IL-1, IL-8 ELISA, read-out: IC50, inhibitor of IL-8 expression
# Procedure: (§1) This assay, the glucocorticoid inhibition of IL-1 (Interleukin-1) induced MMP-1 (Matrix Metalloproteinase-1) and IL-8 (Interleukin-8) production in human chondrosarcoma cells, is conducted as follows: SW1353 human chondrosarcoma cells (obtained from ATCC) from passage 12 through passage 19 are used in a 96 well format assay. Cells are plated at confluence into 96 well plates in DMEM (Dulbecco's Modified Eagle Medium) with 10% fetal bovine serum and incubated at 37° C., 5% CO2. After 24 hours, serum containing media is removed and replaced with 200 ul/well DMEM containing 1 mg/L insulin, 2 g/L lactalbumin hydrosylate, and 0.5 mg/L ascorbic acid and returned to incubation at 37° C., 5% CO2. […] IL-8 production is assessed using the Quantikine human IL-8 ELISA kit from R&D Systems (D8050) on samples diluted 60. fold in RD5P Calibrator Diluent, following the manufacturer's protocol. The percent of the average IL-1 control is determined for the average of each of the triplicate samples following subtraction of the average signal from untreated cells. IC50's are determined from log linear plots of the percent of control versus the concentration of inhibitor. […] MMP-1 production is assessed via the Bio-Trak MMP-1 ELISA kit from Amersham (RPN2610) on 100 ul of neat sample following the manufacturer's protocol. […]
# [2] = test system: IL-1 (Interleukin-1) induced MMP-1 (Matrix Metalloproteinase-1) production in SW1353 human chondrosarcoma cells; assay: glucocorticoid inhibition of IL-1 induced MMP-1 production in human chondrosarcoma cells; assay type: cell-based; settings: 20 ng/ml IL-1 beta, 72 hours after IL-1 addition, MMP-1 ELISA, read-out: IC50, inhibitor of MMP1 expression
# Procedure: as §1
structure (smiles),measurement,setting,value
"C[C@@H]1C[C@H]2[C@@H]3CCC4=CC(=O)C=C[C@]4(C)[C@@]3(F)[C@@H](O)C[C@]2(C)[C@@]1(O)C(=O)CO [Dexamethasone, (11β,16α)-9-fluoro-11,17,21-trihydroxy-16-methylpregna-1,4-diene-3,20-dione]",IC50,[1],5 nM
same,IC50,[2],5 nM
